Laboratory results: patent publication US20230079045A1 (priority 2019, published 2023)

Each compound was assayed on IFV A/PR/8/34 (assay: cytopathic effect (CPE) antiviral test in MDCK cells, IFV A/PR/8/34). Details: unidentified influenza virus, PR/8, MDCK, 120 h, read-out: EC50(IFV A/PR/8/34).
Type: cell-based, influenza virus
In the case of Cc1nnn(C(c2ccccc2)C2CCN(C(=O)c3cc(-c4nc5cc(-c6cncn6C)ccc5o4)ccn3)CC2)n1 (racemic) [Compound 167, (R/S)-(4-(5-(1-methyl-1H-imidazol-5-yl)benzo[d]oxazol-2-yl)pyridin-2-yl)(4-((5-methyl-2H-tetrazol-2-yl)(phenyl)methyl)piperidin-1-yl)methanone], the EC50 is reported as 0.005 µM.
For Cc1nnn([C@@H](c2ccsc2)C2CCN(C(=O)c3cc(-c4nc5cc(NC(=O)[C@@H]6C[C@@H]6F)ccc5o4)ccn3)CC2)n1 [Compound 203, (1S,2S)-2-fluoro-N-(2-(2-(4-((R)-(5-methyl-2H-tetrazol-2-yl)(thiophen-3-yl)methyl)piperidine-1-carbonyl)pyridin-4-yl)benzo[d]oxazol-5-yl)cyclopropanecarboxamide], the EC50 was 0.019 µM.
[2H]C([2H])([2H])n1nnc(C(c2ccccc2)N2CCN(C(=O)c3cc(-c4nc5cc(NC(=O)[C@@H]6C[C@@H]6F)ccc5o4)ccn3)CC2)n1 (stereo partly drawn) [Compound 178, (1S,2S)-2-fluoro-N-(2-(2-(4-((R)-(2-Deuteratedmethyl-2H-tetrazol-5-yl)(phenyl)methyl)piperazine-1-carbonyl)pyridin-4-yl)benzo[d]oxazol-5-yl)cyclopropanecarboxamide] was tested, and the EC50 was 0.007 µM.
In the case of O=C(c1cc(-c2cc3cc(NC(=O)C4(F)CC4)ccc3o2)ccn1)N1CCN(C(c2ccccc2)c2nnn(C(F)F)n2)CC1 (racemic) [Compound 143, (R/S)—N-(2-(2-(4-((2-(difluoromethyl)-2H-tetrazol-5-yl)(phenyl)methyl)piperazine-1-carbonyl)pyridin-4-yl)benzofuran-5-yl)-1-fluorocyclopropane-1-carboxamide], the EC50 is reported as 0.013 µM.
Work on O=C(c1cc(-c2nc3cc(-c4cnoc4)ccc3o2)ccn1)N1CCN(C(c2ccccc2)c2nnn(C(F)F)n2)CC1 (racemic) [Compound 174, (R/S)-(4-((2-(difluoromethyl)-2H-tetrazol-5-yl)(phenyl)methyl)piperazin-1-yl)(4-(5-(isoxazol-4-yl)benzo[d]oxazol-2-yl)pyridin-2-yl)methanone] yielded an EC50 of 0.015 µM.
In the case of Cc1nnn(C(c2ccccc2)C2CCN(C(=O)c3cc(-c4nc5ccc(NC(=O)[C@@H]6C[C@@H]6F)cc5o4)ccn3)CC2)n1 (single isomer, unassigned) [Compound 134], the EC50 is reported as 0.004 µM.
Cc1cn(-c2ccc3oc(-c4ccnc(C(=O)N5CCN(C(c6ccccc6)c6nnn(C(F)F)n6)CC5)c4)nc3c2)cn1 (racemic) [Compound 158, (R/S)-(4-((2-(difluoromethyl)-2H-tetrazol-5-yl)(phenyl)methyl)piperazin-1-yl)(4-(5-(4-methyl-1H-imidazol-1-yl)benzo[d]oxazol-2-yl)pyridin-2-yl)methanone] showed an EC50 of 0.003 µM.
Work on CC(C)n1cc(-c2ccc3oc(-c4ccnc(C(=O)N5CCN(C(c6ccccc6)c6nnn(C(F)F)n6)CC5)c4)nc3c2)cn1 (racemic) [Compound 146, (R/S)-(4-((2-(difluoromethyl)-2H-tetrazol-5-yl)(phenyl)methyl)piperazin-1-yl)(4-(5-(1-isopropyl-1H-pyrazol-4-yl)benzo[d]oxazol-2-yl)pyridin-2-yl)methanone] yielded an EC50 of 0.026 µM.
Compound COCc1nnn(C(c2ccccc2)C2CCN(C(=O)c3cc(-c4nc5cc(NC(=O)[C@@H]6C[C@@H]6F)ccc5o4)ccn3)CC2)n1 (mixture of isomers) [Compound 200, (1S,2S)-2-fluoro-N-(2-(2-(4-((R/S)-(5-(methoxymethyl)-2H-tetrazol-2-yl)(phenyl)methyl)piperidine-1-carbonyl)pyridin-4-yl)benzo[d]oxazol-5-yl)cyclopropane-1-carboxamide] has an EC50 of 0.0021 µM.
With CC(C)(F)C(=O)Nc1ccc2oc(-c3ccnc(C(=O)N4CCN(C(c5ccccc5)c5nnn(C(F)F)n5)CC4)c3)cc2c1 (racemic) [Compound 141, (R/S)—N-(2-(2-(4-((2-(difluoromethyl)-2H-tetrazol-5-yl)(phenyl)methyl)piperazine-1-carbonyl)pyridin-4-yl)benzofuran-5-yl)-2-fluoro-2-methylpropanamide] the EC50 was 0.016 µM.
